Reference: patent publication US20110008465A1, “SESQUITERPENE FORMULATIONS, KITS AND METHODS OF USE THEREOF” (priority 2007, published 2011)
Marks after values point to notes of the source that are not given here.

Legend:
[1] = test system: Panc 05.04 (pancreas cancer); assay: Chou and Talalay combination assay with beta-caryophyllene; assay type: cell-based, Human; settings: in combination with beta-caryophyllene in ethanol (40-150 mM), 48 h
Procedure: Agent: […] Each solution was prepared fresh and use within 1 hour after preparation. 5 μL of each test article were added to 1 mL of culture medium for a final concentration of 0.5% of solvent and this concentration have no toxic effect on cells. Cells: The Panc 05.04 cell line was used. Cells were harvested using trypsine-EDTA. […] Cells were plated in 96-well microplates (BD Falcon) at a density of 7.5×10^3 cells per well for Chou and Talalay assay in 100 μL of culture medium and were allowed to adhere for 24 hours before treatment. Proliferation assay: Increasing concentrations of the anticancer agents and/or beta-caryophyllene were added to 96-well plate (100 μL per well). The final concentration of solvent in the culture medium was maintained below 0.5% (volume/volume) to avoid solvent toxicity. […] The cells were incubated for 48 h at 37° C. and 5% CO2. Cytotoxicity was assessed using the resazurin reduction test (8). […] Resazurin was then removed. Data analysis: Results were analyzed using the Chou and Talalay method (9) and may be interpreted as follow: […]

[2] = test system: Lewis lung carcinoma; assay: In vivo potentiating effect of Formulation A on Taxotere against Lewis lung cancer-bearing mice; settings: i.v. days 1-4, day 18
Procedure: (§1) Cells: The Lewis lung carcinoma cell line was used (#CRL-1642, lot #4372266, ATCC). […] Cells were then harvested with up and down only. Cells were counted using a hemacytometer and resuspended in DMEM medium without SVF.
Mice: 6-weeks old C57BL/6 male mice were used (Charles Rivers Inc., St-Constant, QC).
(§2) Inoculation: 100 μL of a solution containing 1×10^7 cells/mL were inoculated subcutaneously in each mouse.
The mice of each group (n=10) were treated with a volume of 100 μL containing saline, Formulation A of Example 5 above (hereinafter referred to as Formulation A), Taxotere™ or a combination of Formulation A with Taxotere™ in doses presented in Table 7 below: […]
Values of p<0.05 were considered statistically significant. The length and the width of tumor were measured with calliper on day 10 to day 18.

[3] = Toxicity of Formulation A and/or Taxotere treatments (body weight) on Lewis lung cancer-bearing mice; settings: for Loss of weight > 20% (n = 10): day 1 to day 8
Procedure: The toxicity of the treatments described in Table 7 above was determined using the body weight of mice.

[4] = test system: Lewis lung carcinoma; assay: In vivo potentiating effect of Formulation A on paclitaxel against Lewis lung cancer-bearing mice; settings: for CTW (estimated weight) / T/C (estimated weight) / T/C (real weight) / TGI (estimated weight) / TGI (real weight) / Tumor weight (real weight): i.v. day 1 to 4, day 18
Procedure: as §1
Mice: 6-weeks old C57BL/6 male mice were used Charles Rivers Inc., St-Constant, QC). […] The mice of each group (n=10) were treated with a volume of 100 μL containing saline, Formulation A (see Example 5), paclitaxel or combination of the Formulation A with paclitaxel.
as §2
Treatment: Lewis lung carcinoma cells were inoculated subcutaneous on C57BL/6 mice on day 0. The potentiating effect of the Formulation A combined with paclitaxel was evaluated against Lewis lung carcinoma-bearing mice (C57BL/6). The mice of each group (n=10) were treated with a volume of 100 μL containing saline, Formulation A, paclitaxel or a combination of Formulation A with paclitaxel in doses presented in Table 10 below: The treatments were administered intravenous on day 1 to 4. The length and the width of tumor were measured with calliper on day 8 to day 18. In the end of the experiment (day 18), the tumors were extracted and weighed.
Values of p<0.05 were considered statistically significant.
(b) Tumor weight (TW): The TW of each tumor was measured on day 18 after the sacrifice of each mouse. TW values were averaged within each group. […] Values of p<0.05 were considered statistically significant.

[5] = test system: A-549 (lung cancer); assay: Chou and Talalay combination assay with beta-caryophyllene; assay type: cell-based, human; settings: anticancer drug in combination with beta-caryophyllene; Chou and Talalay CI; 48 h
Procedure, shortened: (§3)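 Cells in DMEM + 10% FBS were exposed to increasing concentrations of anticancer agents and/or beta-caryophyllene for 48 h at 37° C, 5% CO2, with solvent kept below 0.5% (v/v).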

[6] = test system: DLD-1 (colon cancer); assay: as above; assay type: cell-based, human; settings: anticancer drug in combination with beta-caryophyllene; Chou and Talalay CI; 48 h
Procedure, shortened: as §3

[7] = test system: MCF-7 (breast cancer); assay: as above; assay type: cell-based, human; settings: anticancer drug in combination with beta-caryophyllene; Chou and Talalay CI; 48 h
Procedure, shortened: as §3

[8] = test system: MDA-MB-231 (breast cancer); assay: as above; assay type: cell-based, human; settings: anticancer drug in combination with beta-caryophyllene; Chou and Talalay CI; 48 h
Procedure, shortened: as §3

[9] = test system: PA-1 (ovary cancer); assay: as above; assay type: cell-based, human; settings: anticancer drug in combination with beta-caryophyllene; Chou and Talalay CI; 48 h
Procedure, shortened: as §3

[10] = test system: B16 (murine melanoma); assay: as above; assay type: cell-based; settings: anticancer drug in combination with beta-caryophyllene; Chou and Talalay CI; 48 h
Procedure, shortened: as §3

[11] = test system: GL-261 (murine glioblastoma); assay: as above; assay type: cell-based; settings: anticancer drug in combination with beta-caryophyllene; Chou and Talalay CI; 48 h
Procedure, shortened: as §3

[12] = test system: MEL-2 (human melanoma); assay: as above; assay type: cell-based; settings: anticancer drug in combination with beta-caryophyllene; Chou and Talalay CI; 48 h
Procedure, shortened: as §3

[13] = test system: U-251 (human glioblastoma); assay: as above; assay type: cell-based; settings: anticancer drug in combination with beta-caryophyllene; Chou and Talalay CI; 48 h
Procedure, shortened: as §3

Q: For `CCc1c2c(nc3ccc(OC(=O)N4CCC(N5CCCCC5)CC4)cc13)-c1cc3c(c(=O)n1C2)COC(=O)[C@]3(O)CC` [Irinotecan], which “Potentiating activity Panc 05.04” value [1] is on record?
A: Its value is “Potentiating > IC50”.

Q: With `CC[C@@]1(O)C(=O)OCc2c1cc1n(c2=O)Cc2cc3ccccc3nc2-1` [Camptothecin, camptothecin] as the compound, how does the “Potentiating activity Panc 05.04” value [1] read?
A: Its value is “Potentiating > IC60”.

Q: With `CC(=O)O[C@@]12CO[C@@H]1C[C@H](O)[C@@]1(C)C(=O)[C@H](O)C3=C(C)[C@@H](OC(=O)[C@H](O)[C@@H](NC(=O)OC(C)(C)C)c4ccccc4)C[C@@](O)([C@@H](OC(=O)c4ccccc4)[C@H]21)C3(C)C` [Taxotere ™, docetaxel] as the compound, how does the CTW ([2]; Taxotere 5 mg/kg) read?
A: Its CTW is 380 ± 116 mg.

Q: What about the T/C ([2]; Taxotere 5 mg/kg) of the same compound?
A: Its T/C is 89%.

Q: And the TGI ([2]; Taxotere 5 mg/kg)?
A: The TGI was 11%.

Q: And the TGI ([2]; Taxotere 5 mg/kg, listed as Taxotere™)?
A: The TGI was “about 11%”.

Q: And the CTW ([2]; Taxotere 10 mg/kg)?
A: Its CTW is 346 ± 107 mg.

Q: What about the T/C ([2]; Taxotere 10 mg/kg) of the same compound?
A: Its T/C is 81%.

Q: What about the TGI ([2]; Taxotere 10 mg/kg) of the same compound?
A: Its TGI is 19%.

Q: What about the CTW ([2]; Taxotere 15 mg/kg) of the same compound?
A: The CTW was 178 ± 112^c mg.

Q: And the T/C ([2]; Taxotere 15 mg/kg)?
A: Its T/C is 42%.

Q: And the TGI ([2]; Taxotere 15 mg/kg)?
A: Its TGI is 58%.

Q: And the TGI ([2]; Taxotere 15 mg/kg, listed as Taxotere™)?
A: The TGI was “about 58%”.

Q: And the “Potentiating activity Panc 05.04” value [1]?
A: Its value is “Potentiating > IC10”.

Q: And the “loss of weight (day 7) with regard to the initial weight (day 1)” value (“loss of weight (day 7) with regard” below) ([3]; Taxotere 5 mg/kg)?
A: The value was “about 0.55%”.

Q: What about the “Loss of weight > 20% (n = 10)” value ([3]; Taxotere 5 mg/kg) of the same compound?
A: Its value is 0.

Q: What about the “loss of weight (day 7) with regard” value ([3]; Taxotere 10 mg/kg) of the same compound?
A: The value was about 3.33%.

Q: And the “Loss of weight > 20% (n = 10)” value ([3]; Taxotere 10 mg/kg)?
A: The value was 0.

Q: What about the “loss of weight (day 7) with regard” value ([3]; Taxotere 15 mg/kg) of the same compound?
A: The value was “about 13%”.

Q: What about the “Loss of weight > 20% (n = 10)” value ([3]; Taxotere 15 mg/kg) of the same compound?
A: The value was 7.

Q: With `CC(=O)O[C@H]1C(=O)[C@@]2(C)[C@H]([C@H](OC(=O)c3ccccc3)[C@]3(O)C[C@H](OC(=O)[C@H](O)[C@@H](NC(=O)c4ccccc4)c4ccccc4)C(C)=C1C3(C)C)[C@]1(OC(C)=O)CO[C@@H]1C[C@@H]2O` [Paclitaxel, paclitaxel] as the compound, how does the “CTW (estimated weight)” value ([4]; paclitaxel 10 mg/kg) read?
A: The value was 568 ± 155 mg.

Q: What about the “T/C (estimated weight)” value ([4]; paclitaxel 10 mg/kg) of the same compound?
A: The value was 81%.

Q: And the “T/C (real weight)” value ([4]; paclitaxel 10 mg/kg)?
A: Its value is 87%.

Q: And the “TGI (estimated weight)” value ([4]; paclitaxel 10 mg/kg)?
A: Its value is 19%.

Q: And the “TGI (real weight)” value ([4]; paclitaxel 10 mg/kg)?
A: Its value is 13%.

Q: And the “Tumor weight (real weight)” value ([4]; paclitaxel 10 mg/kg)?
A: Its value is 410 ± 90 mg.

Q: What about the “CTW (estimated weight)” value ([4]; paclitaxel 20 mg/kg) of the same compound?
A: The value was 510 ± 274 mg.

Q: And the “T/C (estimated weight)” value ([4]; paclitaxel 20 mg/kg)?
A: The value was 73%.

Q: And the “T/C (real weight)” value ([4]; paclitaxel 20 mg/kg)?
A: The value was 91%.

Q: And the “TGI (estimated weight)” value ([4]; paclitaxel 20 mg/kg)?
A: Its value is 27%.

Q: And the “TGI (real weight)” value ([4]; paclitaxel 20 mg/kg)?
A: Its value is 9%.

Q: And the “Tumor weight (real weight)” value ([4]; paclitaxel 20 mg/kg)?
A: The value was 420 ± 350 mg.

Q: What about the “CTW (estimated weight)” value ([4]; paclitaxel 30 mg/kg) of the same compound?
A: Its value is 446 ± 118^c,d mg.

Q: What about the “T/C (estimated weight)” value ([4]; paclitaxel 30 mg/kg) of the same compound?
A: The value was 64%.

Q: And the “T/C (real weight)” value ([4]; paclitaxel 30 mg/kg)?
A: Its value is 81%.

Q: And the “TGI (real weight)” value ([4]; paclitaxel 30 mg/kg)?
A: The value was 19%.

Q: And the “Tumor weight (real weight)” value ([4]; paclitaxel 30 mg/kg)?
A: The value was 380 ± 200 mg.

Q: And the “effect on tumor growth (in words)” value ([4]; paclitaxel 10 and 20 mg/kg alone)?
A: Its value is “do not inhibit significantly tumor growth”.

Q: What about the “Potentiating activity A-549” value [5] of the same compound?
A: The value was “(3) (Moderate: 0.5 < CI < 0.8 at IC50)”.

Q: What about the “Potentiating activity DLD-1” value [6] of the same compound?
A: Its value is “(2) (High: CI below 0.5 at IC50)”.

Q: What about the “Potentiating activity MCF-7” value [7] of the same compound?
A: Its value is “(1) (Very High: CI equal or below 1 at IC20 and Cl below 0.6 to IC50)”.

Q: And the “Potentiating activity MDA” value [8]?
A: Its value is “(3) (Moderate: 0.5 < CI < 0.8 at IC50)”.

Q: And the “Potentiating activity PA-1” value [9]?
A: Its value is “(2) (High: CI < 0.5 to IC50)”.

Q: What about the “Potentiating activity B16” value [10] of the same compound?
A: Its value is “(1) (Very High: potentiating or additive activity to IC20 and CI < 0.6 to IC50)”.

Q: What about the “Potentiating activity GL-261” value [11] of the same compound?
A: Its value is “(2) (High: CI < 0.5 to IC50)”.

Q: What about the “Potentiating activity MEL-2” value [12] of the same compound?
A: The value was “(3) (Moderate: 0.5 < CI < 0.8 to IC50)”.

Q: What about the “Potentiating activity U-251” value [13] of the same compound?
A: Its value is “(1) (Very High: potentiating or additive activity to IC20 and CI < 0.6 to IC50)”.

Q: What about the “Potentiating activity Panc 05.04” value [1] of the same compound?
A: The value was “Potentiating > IC80”.
